# According to patent US20250108036A1, “COMPOSITIONS FOR REMOVING SENESCENT CELLS AND USES THEREOF” (LIFECEUTIX CO., LTD., priority 2021, published 2025):
# Read-outs that look alike come from different tables or passages of the source.
# How the values were obtained:
# Assay type in all cases: cell-based, human
# [1] = test system: HMGN1; assay: HMGN1 ELISA in culture medium of A549 cancer cells (Example 12, Table 66); conditions: Homo sapiens; for activity at 30 µM: test compound 30 μM
# [2] = test system: A549; assay: CellTiter-Glo cell viability of senescent A549 cancer cells (Example 12, Table 67); conditions: for viability at 1.1 µM / viability at 10 µM / viability at 30 µM / viability at 90 µM: Homo sapiens; for Survival (%): doxorubicin-induced senescent A549 cancer cells
# [3] = test system: HMGN1; assay: HMGN1 ELISA in culture medium of foreskin cells (Examples 10, 11; Tables 62, 63, 64); conditions: Homo sapiens; for activity at 30 µM: read-out: HMGN1
# [4] = test system: foreskin cells in which senescence was induced by doxorubicin; assay: CellTiter-Glo cell viability of doxorubicin-induced senescent foreskin cells (Examples 1-2, 10, 11, 13; Tables 4, 63, 65); conditions: for removal of senescent cells: excessive concentrations (1 or 20 mM)
# Description: After 3 days, cell viability was measured using CellTiter-Glo Luminescent Cell Viability Assay (Promega) or light microscopy.
# [5] = A549, doxorubicin-induced senescent A549 cells, ELISA, DMSO = 100, read-out: HMGN1 (amount of HMGN1 secreted in the cell culture)
# [6] = A549, doxorubicin-induced senescent A549 cancer cells, 1.1 μM test compound, CellTiter-Glo, read-out: Survival (%)
# [7] = A549, doxorubicin-induced senescent A549 cancer cells, 10 μM test compound, CellTiter-Glo, read-out: Survival (%)
# [8] = 30 μM test compound, doxorubicin-treated foreskin cells, DMSO = 100
# [9] = Homo sapiens, 72 h, 1.1 μM test compound, doxorubicin-induced senescent foreskin cells, CellTiter-Glo, 0 μM = 100, read-out: Survival (%)
# [10] = Homo sapiens, 72 h, […] test compound, doxorubicin-induced senescent foreskin cells, CellTiter-Glo, 0 μM = 100, read-out: Survival (%)
# [11] = A549, doxorubicin-induced senescent A549 cells, test compound 90 μM, ELISA, DMSO = 100, read-out: HMGN1 (amount of HMGN1 secreted in the cell culture)
# [12] = A549, doxorubicin-induced senescent A549 cancer cells, 30 μM test compound, CellTiter-Glo, read-out: Survival (%)
# [13] = A549, doxorubicin-induced senescent A549 cancer cells, 90 μM test compound, CellTiter-Glo, read-out: Survival (%)
# [14] = Homo sapiens, 72 h, 10 μM test compound, doxorubicin-induced senescent foreskin cells, CellTiter-Glo, 0 μM = 100, read-out: Survival (%)
# [15] = Homo sapiens, 72 h, 30 μM test compound, doxorubicin-induced senescent foreskin cells, CellTiter-Glo, 0 μM = 100, read-out: Survival (%)
# [16] = Homo sapiens, 72 h, read-out: Survival (%)
smiles,measurement,setting,value
C[C@]12C=C(C#N)C(=O)C3(CC=CC3)C1=CC[C@@H]1[C@@H]2CC[C@]2(C)C(=O)CC[C@@H]12 [LX-2308],activity at 30 µM,[1]; [5],287%
same,viability at 1.1 µM,[2]; [6],96.6%
same,viability at 10 µM,[2]; [7],23.5%
same,activity at 30 µM,[3]; [8],329%
same,viability at 1.1 µM,[4]; [9],49.6%
same,viability at […],[4]; [10],5.9%
CCN(CC)C1CCN(Cc2cc(C#CCNc3ccccc3)cc(I)c2O)CC1 [LX-910],activity at 90 µM,[1]; [11],238%
same,viability at 1.1 µM,[2]; [6],95.8%
same,viability at 10 µM,[2]; [7],76.9%
same,viability at 30 µM,[2]; [12],47.5%
same,viability at 90 µM,[2]; [13],2.7%
same,activity at 30 µM,[3]; [8],278%
same,viability at 1.1 µM,[4]; [9],95.6%
same,viability at 10 µM,[4]; [14],68.4%
same,viability at 30 µM,[4]; [15],1.1%
same,viability at […],[4]; [10],84.7%
C[C@H]1C(=O)C(C#N)=C[C@@]2(C)c3c(c(-c4ccccc4)nn3-c3ccc(-c4cccc(CO)c4)cc3)CC[C@H]12 [LX-2505],activity at 30 µM,[1]; [5],308%
same,viability at 1.1 µM,[2]; [6],100%
same,viability at 10 µM,[2]; [7],18.6%
same,activity at 30 µM,[3]; [8],248%
same,viability at 1.1 µM,[4]; [9],78.6%
same,viability at […],[4]; [10],36.9%
"Cc1ccc(Nc2nccc(N(C)c3ccc4c(C)n(C)nc4c3)n2)cc1S(N)(=O)=O [LX-3301, Pazopanib, reference compound]",activity at 90 µM,[1]; [11],229%
same,viability at 1.1 µM,[2]; [6],100%
same,viability at 10 µM,[2]; [7],85.9%
same,viability at 30 µM,[2]; [12],51.9%
same,viability at 90 µM,[2]; [13],4.2%
same,activity at 90 µM,"[3]; 90 μM test compound, doxorubicin-treated foreskin cells, DMSO = 100",228%
same,viability at 1.1 µM,[4]; [9],100%
same,viability at 10 µM,[4]; [14],67.4%
same,viability at 30 µM,[4]; [15],39.5%
same,viability at 90 µM,"[4]; Homo sapiens, 72 h, 90 μM test compound, doxorubicin-induced senescent foreskin cells, CellTiter-Glo, 0 μM = 100, read-out: Survival (%)",2.7%
same,viability at […],[4]; [10],99.2%
CCn1c(C#CCNc2ccccc2)cc2cc(CNC)ccc21 [LX-905],activity at 90 µM,[1]; [11],217%
same,viability at 1.1 µM,[2]; [6],101%
same,viability at 10 µM,[2]; [7],83.1%
same,viability at 30 µM,[2]; [12],79.5%
same,viability at 90 µM,[2]; [13],22.7%
same,activity at 30 µM,[3]; [8],318%
same,viability at 1.1 µM,[4]; [9],97.6%
same,viability at 10 µM,[4]; [14],42.5%
same,viability at 30 µM,[4]; [15],6.9%
same,viability at […],[4]; [10],91.6%
O=S(=O)(NC1CCCCC1)c1ccc2c(c1)C(=NO)c1cc(S(=O)(=O)NC3CCCCC3)ccc1-2 [LX-602],activity at 30 µM,[1]; [5],248%
same,viability at 1.1 µM,[2]; [6],102%
same,viability at 10 µM,[2]; [7],99%
same,viability at 30 µM,[2]; [12],41.8%
same,viability at 90 µM,[2]; [13],2.7%
same,activity at 30 µM,[3]; [8],248%
same,viability at 1.1 µM,[4]; [9],79%
same,viability at 10 µM,[4]; [14],25.9%
same,viability at 30 µM,[4]; [15],16.1%
same,viability at […],[4]; [10],55.2%
"Cc1onc(C(=O)N2CCN(C(c3ccc(Cl)cc3)c3ccc(OCc4cn(CCOCCNc5cccc6c5C(=O)N(C5CCC(=O)NC5=O)C6=O)nn4)cc3)CC2)c1[N+](=O)[O-] (centres unmarked) [LX-431, 4-((2-(2-(4-((4-((4-chlorophenyl)(4-(5-methyl-4-nitroisooxazol-3-carbonyl)piperazin-1-yl)methyl)phenoxy)methyl)-1H-1,2,3-triazol-1-yl)ethoxy)ethyl)amino)-2-(2,6-dioxopiperidin-3-yl)isoindolin-1,3-dione]",activity at 30 µM,[1]; [5],283%
same,viability at 1.1 µM,[2]; [6],94.6%
same,activity at 30 µM,[3]; [8],312%
same,viability at 1.1 µM,[4]; [9],89.5%
same,viability at […],[4]; [10],12.6%
C=C(CN(C)C)C(=O)c1ccc2c(c1)OCO2 [LX-919],activity at 90 µM,"[1]; A549, read-out: HMGN1 (amount of HMGN1 secreted in the cell culture)",215%
same,activity at 30 µM,[3],321%
CCNC(=O)CC[C@]12CCC(C)(C)C[C@H]1[C@H]1C(=O)C=C3[C@@]4(C)C=C(C#N)C(=O)C(C)(C)[C@@H]4CC[C@@]3(C)[C@]1(C)CC2 [LX-2402],activity at 30 µM,[1]; [5],286%
same,viability at 1.1 µM,[2]; [6],99.5%
same,viability at 10 µM,[2]; [7],5.4%
same,activity at 30 µM,[3]; [8],287%
same,viability at 1.1 µM,[4]; [9],45.2%
same,viability at […],[4]; [10],5.1%
COC(=O)C[C@]12CCC(C)(C)C[C@H]1[C@H]1C(=O)C=C3[C@@]4(C)C=C(C#N)C(=O)C(C)(C)[C@@H]4CC[C@@]3(C)[C@]1(C)CC2 [LX-2307],activity at 30 µM,[1]; [5],279%
same,viability at 1.1 µM,[2]; [6],4.8%
same,activity at 30 µM,[3]; [8],271%
same,viability at 1.1 µM,[4]; [9],15.4%
C=CC(=O)NC[C@]12CCC(C)(C)C[C@H]1[C@H]1C(=O)C=C3[C@@]4(C)C=C(C#N)C(=O)C(C)(C)[C@@H]4CC[C@@]3(C)[C@]1(C)CC2 [LX-2509],activity at 30 µM,[1]; [5],305%
same,viability at 1.1 µM,[2]; [6],106%
same,viability at 10 µM,[2]; [7],21.8%
same,activity at 30 µM,[3]; [8],301%
same,viability at 1.1 µM,[4]; [9],81.1%
same,viability at […],[4]; [10],13.5%
"OO [H2O2, reference compound]",removal of senescent cells,[4],hardly removed
"CC(=O)N[C@@H](CS)C(=O)O [NAC, N-acetyl cysteine, reference compound]",removal of senescent cells,[4],hardly removed
"COc1cc(OC)cc(N(CCNC(C)C)c2ccc3ncc(-c4cnn(C)c4)nc3c2)c1 [LX-1903, Erdafitinib, reference compound]",viability at 1.1 µM,[2]; [6],93.1%
same,viability at 10 µM,[2]; [7],12.3%
same,viability at 1.1 µM,[4]; [9],73.4%
same,viability at 10 µM,[4]; [14],22.4%
same,viability at 30 µM,[4]; [15],11.8%
same,viability at […],[4]; [10],50.3%
"CCCC\C=C/C=C/C=C\CCCCCCCC(=O)O [LX-2707, Punicic acid]",viability at 1.1 µM,"[2]; A549, read-out: Survival (%)",95.1%
same,viability at 10 µM,"[2]; A549, read-out: Survival (%)",64.8%
same,viability at 30 µM,"[2]; A549, read-out: Survival (%)",29%
same,viability at 1.1 µM,[4]; [16],95.1%
same,viability at 10 µM,[4]; [16],64.8%
same,viability at 30 µM,[4]; [16],29%
CN(C)CCn1cc(-c2ccc(F)cc2)c(-n2cccc2)n1 [LX-913],viability at 1.1 µM,[2]; [6],95.1%
same,viability at 10 µM,[2]; [7],82.6%
same,Survival (%),"[2]; 30 μM test compound, CellTiter-Glo",45.7%
same,Survival (%),"[2]; 90 μM test compound, CellTiter-Glo",1.9%
same,Survival (%),"[4]; 30 μM test compound, doxorubicin-induced senescent foreskin cells, CellTiter-Glo, 0 μM = 100",14.5%
same,viability at 1.1 µM,[4]; [9],97.7%
same,viability at 10 µM,[4]; [14],65%
same,viability at […],[4]; [10],84.4%
"Cc1onc(C(=O)N2CCN(C(c3ccc(Cl)cc3)c3ccc(OCc4cn(CCOCCOCCNc5cccc6c5C(=O)N(C5CCC(=O)NC5=O)C6=O)nn4)cc3)CC2)c1[N+](=O)[O-] (centres unmarked) [LX-435, 4-((2-(2-(2-(4-((4-((4-chlorophenyl)(4-(5-methyl-4-nitroisooxazol-3-carbonyl)piperazin-1-yl)methyl)phenoxy)methyl)-1H-1,2,3-triazol-1-yl)ethoxy)ethoxy)ethyl)amino)-2-(2,6-dioxopiperidin-3-yl)isoindolin-1,3-dione]",Survival (%),"[2]; 1.1 μM test compound, CellTiter-Glo",92.1%
same,Survival (%),"[4]; 1.1 μM test compound, doxorubicin-induced senescent foreskin cells, CellTiter-Glo, 0 μM = 100",89.1%
same,Survival (%),"[4]; […] test compound, doxorubicin-induced senescent foreskin cells, CellTiter-Glo, 0 μM = 100",5.9%
